Source: paper PMC11575396, “Activity and cryo-EM structure of the polymerase domain of the human norovirus ProPol precursor” (Journal of Virology, 2024)
Where a name gives a salt, the structure may show the parent alone. Read-outs that look alike come from different tables or passages of the source. Marks after values point to notes of the source that are not given here.

Assays:
GII Pro = assay: FRET protease assay; type: biochemical, Human norovirus GII.4 Sydney 2012; conditions: normalized to 0-µM inhibitor control
Description: (§1) A fluorescent resonance energy transfer assay was used to measure the activities of Pro and ProPol as described in reference ([46]). The peptide substrate, 5(6)-carboxyfluorescein (FAM)-[…]-Dabcyl utilized in reactions, was based on the NS1-2/NS3 cleavage site of HuNV GII.4 Sydney 2012, and the scissile bond is shown in bold.

norovirus Pro = test system: norovirus Pro; set-up: method as in PMID 32321856, PMID 38005879; conditions: read-out: IC50 protease activity; cited from earlier work
GI Pol [1] = molecular target: T1, GI Pol (Southampton virus, UniProt Q04544); assay: De novo polymerase inhibition assay (PicoGreen dsRNA formation); type: biochemical
GII ProPol [2] = molecular target: T2, GII ProPol (Norovirus Hu/GII.4/Sydney/NSW0514/2012/AU, UniProt K4L8Z7, E1189A); assay: biochemical; set-up: species or system Human norovirus GII.4 Sydney 2012
GII Pol [3] = molecular target: T3, GII Pol (Norovirus Hu/GII.4/Sydney/NSW0514/2012/AU, UniProt K4L8Z7); assay: biochemical; conditions: for IC50: read-out: IC50 polymerase activity
GII ProPol [4] = molecular target: T2, GII ProPol; assay: Steady-state kinetics of de novo polymerase activity (PicoGreen); type: biochemical, Human norovirus GII.4 Sydney 2012; conditions: (95% CI)
Experimental: (§2) De novo polymerase activity was measured by monitoring the formation of dsRNA from a single-stranded homopolymeric RNA template using PicoGreen as described previously ([69]). Optimal pH (range of 7.0–8.0), concentrations of MnCl2 (2.5 mM), and DTT (5 mM) for HuNV were previously established ([17], [52]). Concentrations of NaCl in the final polymerase reaction were maintained below 10 mM ([17]).
(§3) Standard reactions were performed in 25 µL, containing 5 mM DTT, 2.5 mM MnCl2, 20 ng/µL RNA template, 0.5 mM NTP in 20 mM Tris pH 7.5. Reactions were initiated with the indicated concentration of enzyme and allowed to proceed for a set period at 37°C before being terminated with 10 mM EDTA. PicoGreen (1:350 dilution) (Invitrogen, Waltham, MA, USA) was added to bind the dsRNA, and fluorescence was measured on a Varioskan Flash (Thermo Fisher Scientific, Waltham, MA, USA) plate reader with excitation at 480 nm and emission at 520 nm.
(§4) Kinetics of nucleotide incorporation by polymerase proteins was analyzed by titrating NTP concentration under standard reaction conditions for the linear time period of the enzyme. Kinetics of RNA template utilization was analyzed in the same manner but with titration of the homopolymeric template. The velocity of the reaction against substrate concentration was plotted, and the kinetic parameters were determined by non-linear regression using the Michaelis-Menten model in GraphPad Prism version 9.2.0 (La Jolla, CA, USA). All enzyme kinetics was performed with three independent preparations of protein, with triplicate wells for each replicate.

GII ProPol [5] = molecular target: T2, GII ProPol; assay: as above; type: biochemical, Human norovirus GII.4 Sydney 2012
GII Pol [6] = molecular target: T3, GII Pol; assay: as above; type: biochemical, Human norovirus GII.4 Sydney 2012; conditions: (95% CI)
Experimental: as §2, §3, §4

GI ProPol [7] = molecular target: T4, GI ProPol (Southampton virus, UniProt Q04544, E1280A); assay: as above; type: biochemical, Human norovirus GI Southampton; conditions: GI ProPol 250 nM, (95% CI)
Experimental: as §2, §3, §4

GI Pol [8] = molecular target: T1, GI Pol; assay: as above; type: biochemical, Human norovirus GI Southampton; conditions: GI Pol 75 nM, (95% CI)
Experimental: as §2, §3, §4

GII Pol [9] = test system: GII Pol; set-up: method as in PMID 24316032, PMID 31804593, PMID 30584800; conditions: read-out: IC50 polymerase; cited from earlier work
GI ProPol [10] = molecular target: T4, GI ProPol; assay: De novo polymerase inhibition assay (PicoGreen dsRNA formation); type: biochemical, Human norovirus GI Southampton
GII ProPol [11] = molecular target: T2, GII ProPol; assay: FRET protease assay; type: biochemical, Human norovirus GII.4 Sydney 2012
Description: as §1

[12] = 0, 3 and 30 µM, poly(C) template
[13] = GII ProPol 2 µM, poly(A) 0 to 400 ng/µL, 0.5 mM UTP, 60 min
[14] = GII ProPol 1 µM, ATP 0 to 2000 µM, 80 ng/µL poly(U), (95% CI)
[15] = GTP 0 to 1,000 µM, 20 ng/µL poly(C)
[16] = poly(C) 0 to 80 ng/µL, 0.5 mM GTP
[17] = GII Pol 35 nM, poly(C) 0 to 80 ng/µL, 0.5 mM GTP
[18] = GII ProPol 35 nM, poly(C) 0 to 80 ng/µL, 0.5 mM GTP
[19] = GII Pol 2 µM, poly(U) 0 to 160 ng/µL, 0.5 mM ATP, 20 min

O=C(Nc1cccc(C(=O)Nc2ccc(S(=O)(=O)O)c3cc(S(=O)(=O)O)cc(S(=O)(=O)O)c23)c1)Nc1cccc(C(=O)Nc2ccc(S(=O)(=O)O)c3cc(S(=O)(=O)O)cc(S(=O)(=O)O)c23)c1 [NF023, 8,8′-[carbonylbis(imino-3,1-phenylenecarbonylimino)]bis-1,3,5-naphthalene-trisulphonic acid]
protease activity in the presence of inhibitor (GII Pro): not affected

O=C[C@H](C[C@@H]1CCNC1=O)NC(=O)[C@H](CC1CCCCC1)NC(=O)c1cc2ccccc2[nH]1 [NV-004]
IC50 (norovirus Pro): 0.37 µM
polymerase activity in the presence of inhibitor (GI Pol [1]; [12]): no decrease in polymerase activity
remaining activity at 30 µM (GII ProPol [2]; read-out: polymerase activity compared with 0-µM control): 76%
polymerase activity in the presence of inhibitor (GII Pol [3]; [12]): no decrease in polymerase activity

poly(A)
Km poly(A) (GII ProPol [4]; [13]): 23.6 (19.0–29.3)^a ng/μL
kcat poly(A) (GII ProPol [4]; [13]): 0.42 (0.39–0.45) s^−1

Nc1ncnc2c1ncn2[C@@H]1O[C@H](COP(=O)(O)OP(=O)(O)OP(=O)(O)O)[C@@H](O)[C@H]1O [ATP]
Km (GII ProPol [5]; [14]): 484 µM
kcat ATP (GII ProPol [5]; [14]): 0.6 (0.5–0.7) s^−1
kcat ATP (GII Pol [6]; GII Pol 2 µM, ATP 0 to 2000 µM, 80 ng/µL poly(U)): 0.3 (0.2–0.33) s^−1
Km (GII Pol [6]; GII Pol 2 µM, ATP 0 to 2000 µM, 80 ng/µL poly(U), read-out: Km ATP): 416 µM

Nc1nc2c(ncn2[C@@H]2O[C@H](COP(=O)(O)OP(=O)(O)OP(=O)(O)O)[C@@H](O)[C@H]2O)c(=O)[nH]1 [GTP]
Km (GI ProPol [7]; [15]): 91.5 µM
kcat GTP (GI ProPol [7]; [15]): 0.24 s⁻¹
Km (GI Pol [8]; [15]): 150 µM
kcat GTP (GI Pol [8]; [15]): 1.7 (1.47–1.96) s^−1
kcat GTP (GII Pol [6]; GII Pol 35 nM, GTP 0 to 500 µM, 20 ng/µL poly(C)): 1.6 (1.40–1.96) s^−1
Km (GII Pol [6]; GII Pol 35 nM, GTP 0 to 500 µM, 20 ng/µL poly(C), read-out: Km GTP): 80.3 µM
kcat GTP (GII ProPol [4]; GII ProPol 35 nM, GTP 0 to 500 µM, 20 ng/µL poly(C)): 0.78 (0.69–0.87) s^−1
Km (GII ProPol [4]; GII ProPol 35 nM, GTP 0 to 500 µM, 20 ng/µL poly(C), read-out: Km GTP): 25.3 µM

Cc1nc(/N=N/c2cc(S(=O)(=O)O)c3cc([N+](=O)[O-])cc(S(=O)(=O)O)c3c2)c(COP(=O)(O)O)c(C=O)c1O [PPNDS, pyridoxal‐5′‐phosphate‐6‐(2′‐naphthylazo‐6′‐nitro‐4′,8′‐disulfonate) tetrasodium salt]
IC50 (GI Pol [1]; GI Pol 75 nM, 6 ng/µL poly(C) template, 150 µM GTP): 3.4 µM
IC50 (GII Pol [9]): 0.45 to 1.5 µM
IC50 (GII ProPol [2]): 3.8 µM
IC50 (GII Pol [3]): 0.5 µM
IC50 (GI ProPol [10]): 6.8 µM

O=c1ccn([C@@H]2O[C@H](COP(=O)(O)OP(=O)(O)OP(=O)(O)O)[C@@H](O)[C@H]2O)c(=O)[nH]1 [UTP]
kcat UTP (GII ProPol [4]; GII ProPol 2 µM, nucleotide 0 to 2000 µM, 20 ng/µL poly(A), 60 min): 0.36 (0.32–0.41) s^−1
Km (GII ProPol [4]; GII ProPol 2 µM, nucleotide 0 to 2000 µM, 20 ng/µL poly(A), 60 min, read-out: Km UTP): 438 µM

Nc1ncnc2c([C@@H]3N[C@H](COP(=O)(O)OP(=O)(O)OP(=O)(O)O)[C@@H](O)[C@H]3O)c[nH]c12 [Gal-TP, galidesivir triphosphate]
protease activity in the presence of inhibitor (GII Pro): did not affect protease activity to a level of significance
protease activity in the presence of inhibitor (GII ProPol [11]; 30 µM inhibitor): observable decrease in ProPol activity
protease activity in the presence of inhibitor (GII ProPol [11]; normalized to 0-µM inhibitor control): did not affect protease activity to a level of significance
IC50 (GII ProPol [2]): 247 µM
fold difference between the IC50 values (GII ProPol vs GII Pol) (GII ProPol [2]; poly(U) template): 1.6 fold
IC50 (GII Pol [3]; GII Pol 2 µM, 8 ng/µL poly(U) template, 400 µM ATP): 154 µM

poly(C)
Km poly(C) (GI ProPol [7]; poly(C) 0 to 80 ng/µL, 0.5 mM GTP, 10 min 37°C): 15.6 (12.0–20.2)^a ng/μL
kcat poly(C) (GI ProPol [7]; [16]): 0.4 (0.35–0.42) s^−1
Km poly(C) (GI Pol [8]; [16]): 6.5 (5.2–8.0) ng/μL
kcat poly(C) (GI Pol [8]; [16]): 1.4 (1.3–1.6) s^−1
Km poly(C) (GII Pol [6]; [17]): 8.8 (6.9–11.3) ng/μL
kcat poly(C) (GII Pol [6]; [17]): 1.4 (1.3–1.5) s^−1
Km poly(C) (GII ProPol [4]; [18]): 5.9 (4.7–7.3) ng/μL
kcat poly(C) (GII ProPol [4]; [18]): 1.1 (1.0–1.2) s^−1

poly(U)
Km as estimated by half Vmax (GII ProPol [5]; GII ProPol with poly(U), allosteric sigmoidal model): 6.8 ng/µL
Km poly(U) (GII Pol [6]; [19]): 29.6 (19.7–45.0) ng/μL
kcat poly(U) (GII Pol [6]; [19]): 1.4 (1.2–1.7) s^−1
kcat poly(U) (GII ProPol [4]; GII ProPol 1 µM, poly(U) 0 to 160 ng/µL, 0.5 mM ATP, 20 min): 1.9 (1.6–2.2) s^−1
Km poly(U) (GII ProPol [4]; GII ProPol 1 µM, poly(U) 0 to 160 ng/µL, 0.5 mM ATP, 20 min, Michaelis-Menten): 7.9 (4.7–13.2)^a ng/μL
